# Reference: a melting point compilation (Tetko et al.; mined from patent text by program, amines drawn as free bases though some values may be those of a salt)
row,Structure (SMILES),melting point
1,C1=C(CCCN2CCCCC2)c2ccccc2C12CCCCC2,146 to 148 °C
2,CN(Cc1ccc(NC(=O)C2=Cc3cc(-c4ccc(OCC(=O)OC(C)(C)C)cc4)ccc3S(=O)(=O)CC2)cc1)C1CCOCC1,209 to 211 °C
3,CC(Cl)C(=O)c1ccc2c(c1)CCCC(=O)N2 (configuration not stated),230 °C
4,COC(c1ccc(Cl)c2nc3n(c12)CCCN3c1ccc(Cl)cc1C(F)(F)F)C1CC1 (configuration not stated),208 to 209 °C
5,N#Cc1c(N)nc2ccccc2c1NCc1cccs1,208 °C
6,O=C(Oc1ccc(C(=O)OCc2ccccc2)cc1)C(=O)Oc1ccc(C(=O)OCc2ccccc2)cc1,106 to 108 °C
7,CC(OC=O)C1C(=O)N([Si](C)(C)C(C)(C)C)C1CC(=O)O (mixture of isomers),109 to 110 °C
8,CC(C(=O)O)c1ccc(N2CC(O)C(O)C2)c(Cl)c1 (configuration not stated),112 to 114 °C
9,CC(c1oc2ccccc2c(=O)c1-c1cccc(F)c1)n1nc(-c2ccc(Cl)c(O)c2)c2c(N)ncnc21 (configuration not stated),134 to 136 °C
10,COc1ccccc1N1CCN(C(=O)Nc2cc(C(C)=O)c(C)nc2OC)CC1,153 to 154 °C
11,C=CCOC(C(Cc1ccc(Cl)cc1)n1cncn1)C1(C)COCOC1 (configuration not stated),113 to 115 °C
12,O=C(NCc1ccc(Cl)cc1)c1cn(CCCc2ccccc2)c2sc(CN3CCOCC3)cc2c1=O,169 to 171 °C
13,COc1ccc(CN2C(=O)C(O)(c3cc(CN(C)C)ccc3OC)c3cc(Cl)ccc32)c(OC)c1 (configuration not stated),189 °C
14,O=C(Cc1ccc(Cl)cc1Cl)c1cccnc1,78 to 79 °C
15,COCOCc1nc(-c2ccccc2)oc1CCc1ccc(OCc2nc(-c3ccccc3)oc2C)cc1,124 to 125 °C
16,CC(=O)COc1ccc2ccc(=O)oc2c1,168 to 170 °C
17,CCCNC(=O)C1(C/C=C\CSc2nc3ccc(OCC)cc3s2)c2ccccc2-c2ccccc21,135 to 137 °C
18,CN(C)S(=O)(=O)c1cc(-c2ccccc2)ccc1S(N)(=O)=O,197 to 200 °C
19,C#CC[C@H](c1nc2cc(Cl)ccc2c(=O)n1Nc1ccccc1)N(CCCN)C(=O)c1cccc(F)c1F,168 to 170 °C
20,COc1ccc(-n2cnc3c(O)nc4ccccc4c32)cc1,> 300 °C
21,C[C@]1(CN)COc2cccc(-c3ccccc3)c2O1,130 to 133 °C
22,CNC(=O)c1ccccc1Nc1nc(Nc2ccc3c(c2)N(C)CCN(CCOC)C3)ncc1Cl,172 to 174 °C
23,COc1ccc(OC)c(C(Nc2ccc(C(=N)N)cc2)C(=O)O)c1 (racemic),310 °C
24,O=C(Cc1ccccc1)NC1C(=O)N2C1SC1(CCN(Cc3ccccc3)CC1)C2C(=O)OCc1ccccc1 (configuration not stated),130 to 131 °C
25,Cc1cncnc1N1CCC(C(N)=O)CC1,182 to 184 °C

row,Structure (SMILES),melting point
1,CCC1CCC(=NO)C=C1c1ccc(OCC(=O)O)c(Cl)c1Cl (configuration not stated),88 to 90 °C
2,Cc1c(-c2ccccc2)c(N2CC[C@H](N(C)C)C2)c2oc(C(=O)N(C)CCc3ccccc3)nc2c1C#N,138 to 141 °C
3,Fc1cccc(F)c1-c1nc(/C=C/c2ccc(-c3ccc(OC(F)(F)F)cc3)cc2)no1,122 to 123 °C
4,O=C(Nc1ccc(C(=O)O)cc1)OCCCCC1c2ccccc2-c2ccccc21,146 to 149 °C
5,O=C1N[C@@H](CSSc2ccccc2)C(=O)N2CCC[C@H]12,120 °C
6,CCOCc1nc2c(N)nc3ccccc3c2n1CCCC(C)=O,173 to 175 °C
7,CCOCc1cc(Cn2cc(C3c4ccccc4C=Cc4ccccc43)c(=S)[nH]c2=O)cc(C(=O)O)c1,> 240 °C
8,CNC(=O)c1cc(NC(=O)c2ccc(C)c(Nc3nccc(-c4cccnc4)n3)c2)cc(C(F)(F)F)c1,245 to 249 °C
9,O=C(O)C(=O)c1ccc(OCCSc2ccccc2)cc1,72 to 73 °C
10,CCOc1c(C)cc(P(c2cc(C)c(OCC)c(C)c2)c2cc(C)c(OCC)c(C)c2)cc1C,122 °C
11,COc1cc2c(CCNC(C)=O)c[nH]c2cc1F,158 to 159 °C
12,N#CCOc1nsc2ccc([N+](=O)[O-])cc12,123 to 124 °C
13,N=C(NO)c1ccnc(N)c1,188 °C
14,COc1nc(C)cnc1NS(=O)(=O)c1ccccc1-c1ccc(CC(C)C)c(N)c1,160 to 162 °C
15,ClCCNc1ccnc2cc(Cl)ccc12,239 to 240 °C
16,COc1cc(Nc2c(C#N)cnc3cc4cc(OC)c(OCCN5CCOCC5)cc4cc23)c(Cl)cc1F,204 to 214 °C
17,Cc1cccc2c(=O)c3cccc(-c4ccccc4)c3oc12,140 to 141 °C
18,O=S(=O)(c1cc(C(F)(F)F)[nH]c1-c1ccc(Cl)cc1)C(F)(F)F,167 to 169 °C
19,CCOC(=O)C1=C(C)N2CCNC2=C(C(=O)OCC)C1C (configuration not stated),138 °C
20,CCOC(=O)c1c(O)c2ccc(Br)cc2c(=O)n1CC1CC1,105 to 106 °C
21,C=C1C[C@@H]2[C@H](CC[C@]3(C)C(=O)CC[C@@H]23)[C@@]2(C)CCC(=O)C(OC(C)=O)=C12,183 to 185 °C
22,CCC(=O)c1cn(-c2c(Cl)cc(C(F)(F)F)cc2Cl)nc1C#N,143 °C
23,CC(C)NC(=O)Nc1ccc(Oc2ccc3sncc3c2)c(C(F)(F)F)c1,158 °C
24,CN(C)C1(c2cccc(F)c2)CCC2(CC1)NCCc1c2[nH]c2ccccc12 (configuration not stated),220 to 225 °C
25,COc1cc2c(cc1C(=O)O)nnn2C(C)=O,208 to 212 °C

row,Structure (SMILES),melting point
1,N=C(NC(=O)c1ccccc1)Oc1ccccc1,125 °C
2,Cn1cc(C2=C(c3cn(CCCOS(C)(=O)=O)c4ccccc34)C(=O)NC2=O)c2ccccc21,202 to 204 °C
3,CN(C)CCC1=Cc2ccccc2N(C)c2ccccc21,78 °C
4,CCOc1cccc(-c2cnn3c(-c4cccc(NC(=O)CC(C)C)c4)ccnc23)c1,156 to 158 °C
5,O=C1Nc2ccccc2Oc2cscc21,240 to 241 °C
6,CC(C)C(C(=O)O)N(C)S(=O)(=O)c1ccc(-c2ccc(NC(=O)c3cc4ccccc4o3)cc2)cc1 (configuration not stated),237 to 239 °C
7,COC(=O)c1cccc(OCCCOc2cc3c(cc2O)CCO3)c1,93 °C
8,COc1ccc(-c2cc(=O)c3ccc(OCC4CO4)cc3o2)cc1OC (configuration not stated),148 to 149 °C
9,COc1ccc(C(=O)Nc2ccccc2)cc1NC(=S)Nc1cc(C)cc(C)c1,203 to 205 °C
10,CCOC(=O)Cc1ccc(-c2nc(COc3ccc(COc4nn(-c5ccccc5)cc4/C=C/c4coc(CC)n4)cc3OC)c(C)o2)cc1,155 to 157 °C
11,CN1CCN(C2(CNC=O)CCCCC2)CC1,97 to 98 °C
12,Cc1c(-c2ccc(Cl)s2)ccc(N)c1C#N,108 to 110 °C
13,CCOC(=O)c1nc(-c2cccc([N+](=O)[O-])c2)cs1,149 to 150 °C
14,Cc1nn(C)cc1C(=O)Nc1ccc(OCC(C)(C)C)c(C#N)c1,193 to 194 °C
15,COc1ccc2c(c1)CCC([C@@H]1CC[C@H](O)[C@@]1(C)CCO)C2 (some centres not stated),151 to 153 °C
16,N#Cc1c(-c2ccc(C(F)(F)F)cc2)n(O)c2ccccc12,202 to 203 °C
17,Oc1cc(CCc2ccccc2)cc(O)c1O,124 °C
18,O=c1c2cc(F)c(Cl)nc2n(-c2cccc(C(F)(F)F)c2)c(=O)n1OCc1ccccc1,207 to 208 °C
19,COC(=O)C1=Cc2cc(O)ccc2S(=O)(=O)CC1,176 to 178 °C
20,O=[N+]([O-])c1ccc(S(=O)(=O)Nc2ccccc2)cc1,154 to 156 °C
21,CN(SCl)C(=O)Nc1ccc(Cl)c(Cl)c1,142 to 145 °C
22,COc1ccc(Oc2ccccc2)c(NS(=O)(=O)C(F)(F)F)c1,57 to 58 °C
23,CCc1nc2c(cnn2CC)c(NC2CCOCC2)c1CNC(=O)c1cccc(C(=O)NCc2ccc(OC)c(-c3cccc(CN4CCNC(C)C4)c3)c2)c1 (configuration not stated),110 to 112 °C
24,Cc1c(OCC(F)(F)F)ccnc1CS(=O)c1nc2ccccc2n1S(=O)(=O)c1ccc2c(c1)OCCOCCOCCOCCO2 (configuration not stated),76 to 80 °C
25,Cc1ccnc(NC(c2ccc([N+](=O)[O-])cc2)c2ccccc2O)n1 (configuration not stated),136 to 145 °C

row,Structure (SMILES),melting point
1,CC(C)(C)OC(=O)C(N)Cn1c(=O)c(-c2cccs2)nc2ccccc21 (configuration not stated),144 to 145 °C
2,O=P1(c2cccc(C(F)(F)F)c2)c2ccccc2CN1c1ccccc1 (configuration not stated),48 to 51 °C
3,O=C(NC1(C(=O)Nc2nncs2)CCCC1)OCc1ccccc1,229 to 233 °C
4,COc1ccc(CC#N)c(C)c1OC,60 to 63 °C
5,N=C(N)c1ccc(N2CCN(c3ccc(OCC(=O)O)cc3)CC2)cc1,> 340 °C
6,CCOC(=O)Nc1ccc(C(C)C(O)(Cn2cncn2)c2ccc(F)cc2F)cn1 (configuration not stated),167 to 168 °C
7,FC(F)(F)c1cc(Nc2cc[nH]n2)nc(-c2cccnc2)n1,230 °C
8,COc1cc2ccc(-c3ccc(C(=O)O)cc3)cc2cc1C(C)(C)C,283 °C
9,COC(=O)Cc1csc(NC(=O)C(CC2CCCC2)c2ccc(Cl)c(Cl)c2)n1 (configuration not stated),150 to 151 °C
10,CCCCCCCCCCCCOc1ccc(C(=O)c2ccccc2)cc1,63 to 64 °C
11,CCOC(=O)N1CCN(c2ccc(-n3cnn(C(C)(C)C(O)c4ccc(Cl)cc4)c3=O)cc2)CC1 (configuration not stated),108 °C
12,CC(=O)c1ccc(S(=O)(=O)C[N+](=O)[O-])cc1,94 to 95 °C
13,O[C@@]1(c2ccc(Cl)c(Cl)c2)CCC[C@H]2NCC[C@H]21 (racemic),190 to 191 °C
14,CCOC(=O)c1cc2cc(OCCCCCBr)ccc2o1,31 °C
15,C=CCOc1nc2cccc(C(=O)OC)c2n1Cc1ccc(-c2ccccc2C#N)cc1,118 to 119 °C
16,CCOC(=O)NNC(=O)Cl,77 to 80 °C
17,CCCOC1=Nc2ccc(Cl)cc2C(=CCCN)N1CCC,50 to 51 °C
18,O=Cc1cccc2oc(-c3ccccc3)nc12,116 °C
19,O=C1C2CN(CCc3ccc(Cl)cc3)CC2C(=O)N1c1cc(Cl)cc(Cl)c1 (configuration not stated),115 °C
20,COc1ccc(-c2ccnc(-c3cn(C)c(=O)n3-c3ccc(C(C)(C)C#N)cc3)c2)cc1,219 °C
21,CC1(C)C(=O)C(C(=O)c2ccc(C(F)(F)F)nc2CBr)=C(Cl)C(C)(C)C1=O,94.5 to 95 °C
22,CCCc1c(OCC(O)CSCCN(C)C)ccc(C(C)=O)c1O (configuration not stated),54 to 55 °C
